Data taken from PMC5514901, “Synthesis and evaluation of anthranilamide-based derivatives as FXa inhibitors” (Oncotarget, 2017).

Legend:
[1] = target: T1, human FXa (Homo sapiens, UniProt P00742); experiment: Inhibition activity measurement against FXa (chromogenic substrate CS-11(22)); assay type: biochemical; conditions: for IC50: human FXa, chromogenic substrate, 37°C, read at 405 nm; for FXa inhibitory activity (in words): SAR statement in text
T1 construct: purchased Hyphen BioMed
Protocol: The inhibition of FXa was measured using human FXa (Hyphen BioMed, city, Paris, FRA) and chromogenic substrate CS-11(22) (Hyphen BioMed, Paris, FRA) in 384-well microtiter plates at room temperature. […] 2 μL of FXa (56.8 nM), 16 μL of Tris buffer (adjust to pH 7.4 with HCl containing 0.3 M NaCl and 50 mM Tris) and 3 μL of test compound were added to the well, respectively. The negative control was composed of the same mixed solutions except replacing test compound with DMSO. […] After incubated at 37°C for 5 min, 8 μL of FXa substrate solution (3.5 mM) was added and then incubated at 37°C for 25 min. The FXa activity was measured at 405 nm using a SpectraMax M5 (Molecular Devices, Sunnyvale, CA, USA). The IC50 was calculated by the software named SPSS (IBM, North Castle, NY, USA) and the Probit function in it.

T1 sequence (P00742 235-488 limits assumed): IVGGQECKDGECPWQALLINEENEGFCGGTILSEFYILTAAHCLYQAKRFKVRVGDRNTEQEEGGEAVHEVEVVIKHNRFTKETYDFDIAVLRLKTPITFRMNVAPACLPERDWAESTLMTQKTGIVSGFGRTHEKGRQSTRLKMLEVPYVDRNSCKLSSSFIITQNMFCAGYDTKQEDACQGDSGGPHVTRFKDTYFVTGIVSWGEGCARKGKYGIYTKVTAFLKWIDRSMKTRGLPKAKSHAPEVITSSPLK
T1 sequence (P00742 41-179 partner limits assumed): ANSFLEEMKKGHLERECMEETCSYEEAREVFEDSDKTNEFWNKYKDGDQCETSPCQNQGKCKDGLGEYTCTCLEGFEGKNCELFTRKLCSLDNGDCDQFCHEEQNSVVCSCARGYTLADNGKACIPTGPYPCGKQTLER

SMILES | IC50 [1] [nM] | melting point [°C] | FXa inhibitory activity (in words) [1]
O=C(Nc1ccc(Cl)cc1C(=O)Nc1ccc(-n2ccccc2=O)cc1)c1ccc(Br)s1 [6a-a, 5-bromo-N-(4-chloro-2-((4-(2-oxopyridin-1(2H)-yl)ph-enyl)carbamoyl)phenyl)thiophene-2-carboxamide] | 121 | > 250 | –
O=C(Nc1ccccc1C(=O)Nc1ccc(-n2ccccc2=O)cc1)c1ccc(Br)o1 [6d, 5-bromo-N-(2-((4-(2-oxopyridin-1(2H)-yl)phenyl)carb-amoyl)phenyl)furan-2-carboxamide] | > 1000 | > 250 | –
COc1ccc(C(=O)Nc2ccc(C)cc2C(=O)Nc2ccc(N3CCOCC3=O)cc2)cc1 [6l-f, 2-(4-methoxybenzamido)-5-methyl-N-(4-(3-oxomorph-olino)phenyl)benzamide] | 433 | > 250 | –
COc1ccc(C(=O)Nc2ccccc2C(=O)Nc2ccc(-n3ccccc3=O)cc2)cc1OC [6m, 3,4-dimethoxy-N-(2-((4-(2-oxopyridin-1(2H)-yl)phenyl)arbamoyl)phenyl)benzamide] | > 1000 | > 250 | –
O=C(Nc1ccccc1C(=O)Nc1ccc(-n2ccccc2=O)cc1)c1ccc([N+](=O)[O-])cc1 [6e, 2-(4-nitrobenzamido)-N-(4-(2-oxopyridin-1 (2H)-yl)ph-enyl)benzamide] | – | > 250 | –
Cc1cccc(C(=O)Nc2ccc(-n3ccccc3=O)cc2)c1NC(=O)c1ccc(Br)s1 [6a-c, 5-bromo-N-(2-methyl-6-((4-(2-oxopyridin-1(2H)-yl)ph-enyl)carbamoyl)phenyl)thiophene-2-carboxamide] | > 1000 | > 250 | poor IC50 values at a micromole level
Cc1ccc(NC(=O)c2ccc(Br)s2)c(C(=O)Nc2ccc(N3CCOCC3=O)cc2)c1 [6a-f, 5-bromo-N-(4-methyl-2-((4-(3-oxomorpholino)phenyl)carbamoyl)phenyl)thiophene-2-carboxamide] | 54.8 | > 250 | –
COc1ccc(C(=O)Nc2ccccc2C(=O)Nc2ccc(N3CCOCC3=O)cc2)cc1 [6l-d, 2-(4-methoxybenzamido)-N-(4-(3-oxomorpholino)phe-nyl)benzamide] | 459 | > 250 | –
O=C(Nc1ccc(Cl)cc1C(=O)Nc1ccc(N2CCOCC2=O)cc1)c1ccc(Cl)cc1Cl [6k-e, 2,4-dichloro-N-(4-chloro-2-((4-(3-oxomorpholino)phe-nyl)carbamoyl)phenyl)benzamide] | 259 | > 250 | –
Cc1cccc(C(=O)Nc2ccc(N3CCOCC3=O)cc2)c1NC(=O)c1ccc(Cl)cc1Cl [6k-g, 2-(2,4-dichlorobenzamido)-3-methyl-N-(4-(3-oxomor-pholino)phenyl)benzamide] | > 1000 | > 250 | poor IC50 values at a micromole level
O=C(Nc1ccccc1C(=O)Nc1ccc(-n2ccccc2=O)cc1)c1ccc(Cl)nc1 [6h, 6-chloro-N-(2-((4-(2-oxopyridin-1(2H)-yl)phenyl)carb-amoyl)phenyl)nicotinamide] | 278 | > 250 | –
COc1ccc(C(=O)Nc2c(C)cccc2C(=O)Nc2ccc(N3CCOCC3=O)cc2)cc1 [6l-g, 2-(4-methoxybenzamido)-3-methyl-N-(4-(3-oxomorph-olino)phenyl)benzamide] | > 1000 | > 250 | –
Cc1cccc(C(=O)Nc2ccc(N3CCOCC3=O)cc2)c1NC(=O)c1ccc(Cl)nc1 [6h-g, 6-chloro-N-(2-methyl-6-((4-(3-oxomorpholino)phenyl)carbamoyl)phenyl)nicotinamide] | > 1000 | > 250 | –
O=C(Nc1ccc(Cl)cc1C(=O)Nc1ccc(N2CCOCC2=O)cc1)c1ccc(Cl)nc1 [6h-e, 6-chloro-N-(4-chloro-2-((4-(3-oxomorpholino)phenyl)carbamoyl)phenyl)nicotinamide] | 781 | > 250 | –
O=C(Nc1ccc(Cl)cc1C(=O)Nc1ccc(-n2ccccc2=O)cc1)c1ccc(Cl)nc1 [6h-a, 6-chloro-N-(4-chloro-2-((4-(2-oxopyridin-1(2H)-yl)ph-enyl)carbamoyl)phenyl)nicotinamide] | 427 | > 250 | –
COc1ccc(C(=O)Nc2ccccc2C(=O)Nc2ccc(-n3ccccc3=O)cc2)cc1 [6l, 2-(4-methoxybenzamido)-N-(4-(2-oxopyridin-1(2H)-yl)phenyl)benzamide] | 181 | > 250 | –
Cc1ccc(NC(=O)c2ccc(Cl)nc2)c(C(=O)Nc2ccc(-n3ccccc3=O)cc2)c1 [6h-b, 6-chloro-N-(4-methyl-2-((4-(2-oxopyridin-1(2H)-yl)ph-enyl)carbamoyl)phenyl)nicotinamide] | 212 | > 250 | –

SMILES | IC50 [1] [nM] | melting point [°C] | FXa inhibitory activity (in words) [1]
Cc1cccc(C(=O)Nc2ccc(-n3ccccc3=O)cc2)c1NC(=O)c1ccc(Cl)nc1 [6h-c, 6-chloro-N-(2-methyl-6-((4-(2-oxopyridin-1(2H)-yl)ph-enyl)carbamoyl)phenyl)nicotinamide] | > 1000 | > 250 | –
COc1cc(C(=O)Nc2ccccc2C(=O)Nc2ccc(-n3ccccc3=O)cc2)cc(OC)c1OC [6n, 3,4,5-trimethoxy-N-(2-((4-(2-oxopyridin-1(2H)-yl)phenyl)carbamoyl)phenyl)benzamide] | > 1000 | > 250 | –
Cc1ccc(NC(=O)c2ccc(Cl)cc2Cl)c(C(=O)Nc2ccc(N3CCOCC3=O)cc2)c1 [6k-f, 2,4-dichloro-N-(4-methyl-2-((4-(3-oxomorpholino)phe-nyl)carbamoyl)phenyl)benzamide] | 282 | > 250 | –
Cc1cccc(C(=O)Nc2ccc(N3CCOCC3=O)cc2)c1NC(=O)c1ccc(Br)s1 [6a-g, 5-bromo-N-(2-methyl-6-((4-(3-oxomorpholino)phenyl)carbamoyl)phenyl)thiophene-2-carboxamide] | > 1000 | > 250 | poor IC50 values at a micromole level
N#Cc1ccc(C(=O)Nc2ccccc2C(=O)Nc2ccc(-n3ccccc3=O)cc2)cc1 [6f, 2-(4-cyanobenzamido)-N-(4-(2-oxopyridin-1(2H)-yl)phenyl)benzamide] | > 1000 | > 250 | –
O=C(Nc1ccccc1C(=O)Nc1ccc(N2CCOCC2=O)cc1)c1ccc(Br)s1 [6a-d, 5-bromo-N-(2-((4-(3-oxomorpholino)phenyl)carbamo-yl)phenyl)thiophene-2-carboxamide] | 113 | > 250 | –
COc1ccc(C(=O)Nc2ccc(C)cc2C(=O)Nc2ccc(-n3ccccc3=O)cc2)cc1 [6l-b, 2-(4-methoxybenzamido)-5-methyl-N-(4-(2-oxopyrid-in-1(2H)-yl)phenyl)benzamide] | 452 | > 250 | –
O=C(Nc1ccccc1C(=O)Nc1ccc(-n2ccccc2=O)cc1)c1cc(F)c(F)c(F)c1 [6j, 3,4,5-trifluoro-N-(2-((4-(2-oxopyridin-1(2H)-yl)phenyl)arbamoyl)phenyl)benzamide] | > 1000 | > 250 | –
O=C(Nc1ccccc1C(=O)Nc1ccc(-n2ccccc2=O)cc1)c1ccc(Cl)o1 [6c, 5-chloro-N-(2-((4-(2-oxopyridin-1(2H)-yl)phenyl)carb-amoyl)phenyl)furan-2-carboxamide] | > 1000 | > 250 | –
Cc1cccc(C(=O)Nc2ccc(-n3ccccc3=O)cc2)c1NC(=O)c1ccc(Cl)cc1Cl [6k-c, 2-(2,4-dichlorobenzamido)-3-methyl-N-(4-(2-oxopyrid-in-1(2H)-yl)phenyl)benzamide] | > 1000 | > 250 | poor IC50 values at a micromole level
COc1ccc(C(=O)Nc2c(C)cccc2C(=O)Nc2ccc(-n3ccccc3=O)cc2)cc1 [6l-c, 2-(4-methoxybenzamido)-3-methyl-N-(4-(2-oxopyrid-in-1(2H)-yl)phenyl)benzamide] | > 1000 | > 250 | –
O=C(Nc1ccccc1C(=O)Nc1ccc(N2CCOCC2=O)cc1)c1ccc(Cl)nc1 [6h-d, 6-chloro-N-(2-((4-(3-oxomorpholino)phenyl)carbamo-yl)phenyl)nicotinamide] | > 1000 | > 250 | –
O=C(Nc1ccccc1C(=O)Nc1ccc(-n2ccccc2=O)cc1)c1ccc(F)c(F)c1 [6i, 3,4-difluoro-N-(2-((4-(2-oxopyridin-1(2H)-yl)phenyl)carbamoyl)phenyl)benzamide] | > 1000 | > 250 | –
O=C(Nc1ccccc1C(=O)Nc1ccc(-n2ccccc2=O)cc1)c1ccc(C(F)(F)F)cc1 [6o, N-(4-(2-oxopyridin-1(2H)-yl)phenyl)-2-(4-(trifluoro-methyl)benzamido)benzamide] | > 1000 | > 250 | –
COc1ccc(C(=O)Nc2ccc(Cl)cc2C(=O)Nc2ccc(N3CCOCC3=O)cc2)cc1 [6l-e, 5-chloro-2-(4-methoxybenzamido)-N-(4-(3-oxomorph-olino)phenyl)benzamide] | 485 | > 250 | –
COc1ccc(C(=O)Nc2ccccc2C(=O)Nc2ccc(-n3ccccc3=O)cc2)cc1[N+](=O)[O-] [6g, 4-methoxy-3-nitro-N-(2-((4-(2-oxopyridin-1(2H)-yl)ph-enyl)carbamoyl)phenyl)benzamide] | > 1000 | > 250 | –
